From patent US6825209B2, “Compounds having unique CB1 receptor binding selectivity and methods for their production and use” (Research Triangle Institute, priority 2002, dated 2004)
Like-named read-outs stand apart in the source and are kept apart here.

Assays:
human CB1 receptor = target: T1, human CB1 receptor (Homo sapiens, UniProt P21554); test: Radioligand displacement in human CB1 receptor-transfected cells (HEK-293); assay type: binding
T1 construct: expressed in transfected cells; host or cells: HEK-293
Experimental: Human CB1 receptor affinity. The alkyl amide analogs of the present invention were examined using transfected cell lines expressing the human CB1 receptor (Table 3).
Methods—binding assay in transfected cell lines. The methods used for performing binding assays in transfected cells expressing human CB1 or CB2 receptors are those used above. The CB1 receptor involved a HEK-293 expression system whereas the CB2 receptor was expressed in CHO-K1 cells. […] The incubations and separations were then performed as described above for rat brain membrane preparations.
(§1) Data analysis. Saturation and displacement data were analyzed by unweighted nonlinear regression of receptor binding data. For displacement studies, curve-fitting and IC50 calculation were done with GraphPad Prism (GraphPad Software, Inc., San Diego, Calif.), which fits the data to one and two-site models and compares the two fits statistically. A similar approach was used for the analysis of isotherm data for calculation of Kd's. A two-site fit was accepted only if it was statistically significant (p<0.05) and the following results were not observed:
(§2) IC50 values were then converted to Ki values by reported methods (Cheng and Prusoff, 1973). The statistical evaluation of curve-fitting data allowed for a non-arbitrary conclusion based on the displacement data.

CB1 receptor = target: T2, CB1 receptor (Rattus norvegicus, UniProt P20272); test: Radioligand displacement in whole rat brain (CB1) membrane preparations; assay type: binding; settings: Table 4, parallel synthesis analogs; for Ki: n = 1, concentration assumes 100% yield; for Max. Disp. %, 3H-CP55940 / Max. Disp. %, 3H-SR141716A / Max. Disp. %, 3H-WIN55212-2: n = 1
T2 construct: Whole rat brains or dissected regions from live CD rats; tissue Charles River or Pel-Freez Biologicals; host or cells: whole rat brain (CD rats), P2 membrane
From the text: CB1 receptor affinity in rat brain.
Methods—membrane preparation from brain. The methods for tissue preparation are essentially those described by Devane et al. (1988) as modified by Compton et al. (1993) and later by Thomas et al. (1998). Whole rat brains or dissected regions from live CD rats from Charles River or Pel-Freez Biologicals (Rogers, Ark.), or human brain sections obtained from the National Disease Research Institute, were allowed to thaw to room temperature on ice. Both whole brain and dissected brain regions were used because different brain regions may express different cannabinoid receptor subtypes (Skaper et al., 1996; Thomas et al., 1998). The tissue was homogenized with a Kontes Potter-Elvehjem glass-Teflon grinding system (Fisher Scientific, Springfield, N.J.) in buffer 1 (320 mM sucrose, 2 mM EDTA, 5 mM MgCl2. The homogenate was centrifuged at 1600 g for 10 min. The supernatant was saved and combined with the two subsequent supernatants obtained from washing and 1600 g centrifugation of the P1 pellet. The combined supernatant fractions were then centrifuged at 39,000 g for 15 min. The P2 pellet was resuspended in 50 mL of buffer 2 (50 mM Tris.HCl, 2 mM EDTA, 5 mM MgCl2, pH 7.0), incubated at 37° C. for 10 min, then centrifuged at 23,000 g for 10 min. The P2 membrane was resuspended in 50 mL of buffer 2, incubated at 30° C. for 40 min, then centrifuged at 11,000 g for 15 min. The final wash-treated P2 pellet was resuspended in assay buffer 3 (50 mM Tris.HCl, 1 mM EDTA, 3 MM MgCl2, pH 7.4). Protein concentrations were determined by the method of Bradford (1976) using Coomassie brilliant blue dye (Bio-Rad, Richmond, Calif.) and BSA standards (bovine serum albumin, fatty acid free, Sigma Chemical Co., St. Louis, Mo.) prepared in assay buffer 3. The membrane preparation was divided into aliquots and stored at −80° C. For use in the binding assay, an aliquot of frozen membranes was thawed on ice and diluted to a concentration of ca. 0.2 mg/mL in assay buffer.
Methods—binding assay in brain membrane preparation. The methods for ligand binding are essentially those described by Devane et al. (1988) with the exception that we used a filtration assay. […] All cannabinoid analogs were prepared by suspension in buffer A from a 1-5 mg/mL ethanolic stock. Following incubation at 30° C. for 1 h, binding was terminated by vacuum filtration through pretreated filters in a 96-well sampling manifold (Millipore, Bedford, Mass.). Reaction vessels were washed at least 3 times with 1 mL of ice cold buffer B (50 mM Tris.HCl, 1 mg/mL BSA). The filter plates were air-dried and sealed on the bottom. Liquid scintillant was added to the wells and the top sealed. After incubating the plates in cocktail for at least 2 h, the radioactivity present was determined by liquid scintillation spectrometry. Assays were done in duplicate, and results represent the combined data of three to six independent experiments. All assays were performed in polypropylene test tubes. The GF/C glassfiber filter plates (Packard, Meriden, Conn.) were pretreated in buffer B for at least 1 h.
as §1, §2

[1] = displacement of 3H-CP55940, human CB1 transfected cells, 3H-CP55940, Table 5, parallel synthesis analogs, concentration assumes 100% yield
[2] = displacement of 3H-SR141716A, human CB1 transfected cells, 3H-SR141716A, Table 5, parallel synthesis analogs, concentration assumes 100% yield
[3] = displacement of 3H-WIN55212-2, human CB1 transfected cells, 3H-WIN55212-2, Table 5, parallel synthesis analogs, concentration assumes 100% yield
[4] = human CB1 transfected cells, 3H-CP55940, Table 5, parallel synthesis analogs
[5] = human CB1 transfected cells, 3H-SR141716A, Table 5, parallel synthesis analogs
[6] = human CB1 transfected cells, 3H-WIN55212-2, Table 5, parallel synthesis analogs
[7] = displacement of 3H-CP55940, whole rat brain, 3H-CP55940
[8] = displacement of 3H-SR141716A, whole rat brain, 3H-SR141716A
[9] = displacement of 3H-WIN55212-2, whole rat brain, 3H-WIN55212-2

T2 sequence (P20272 whole entry): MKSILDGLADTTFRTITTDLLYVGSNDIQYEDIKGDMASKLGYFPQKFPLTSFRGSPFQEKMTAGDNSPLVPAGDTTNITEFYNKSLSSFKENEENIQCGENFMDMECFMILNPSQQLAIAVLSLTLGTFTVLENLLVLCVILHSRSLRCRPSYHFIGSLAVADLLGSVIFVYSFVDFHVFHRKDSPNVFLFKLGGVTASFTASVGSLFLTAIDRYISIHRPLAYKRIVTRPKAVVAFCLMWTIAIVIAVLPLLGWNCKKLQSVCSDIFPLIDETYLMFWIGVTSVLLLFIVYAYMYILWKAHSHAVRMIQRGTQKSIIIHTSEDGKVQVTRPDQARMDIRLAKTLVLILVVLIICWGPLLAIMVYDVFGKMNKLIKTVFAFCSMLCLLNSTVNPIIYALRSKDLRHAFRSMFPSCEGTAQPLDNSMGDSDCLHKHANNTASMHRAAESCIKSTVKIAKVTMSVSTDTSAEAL
T1 sequence (P21554 whole entry): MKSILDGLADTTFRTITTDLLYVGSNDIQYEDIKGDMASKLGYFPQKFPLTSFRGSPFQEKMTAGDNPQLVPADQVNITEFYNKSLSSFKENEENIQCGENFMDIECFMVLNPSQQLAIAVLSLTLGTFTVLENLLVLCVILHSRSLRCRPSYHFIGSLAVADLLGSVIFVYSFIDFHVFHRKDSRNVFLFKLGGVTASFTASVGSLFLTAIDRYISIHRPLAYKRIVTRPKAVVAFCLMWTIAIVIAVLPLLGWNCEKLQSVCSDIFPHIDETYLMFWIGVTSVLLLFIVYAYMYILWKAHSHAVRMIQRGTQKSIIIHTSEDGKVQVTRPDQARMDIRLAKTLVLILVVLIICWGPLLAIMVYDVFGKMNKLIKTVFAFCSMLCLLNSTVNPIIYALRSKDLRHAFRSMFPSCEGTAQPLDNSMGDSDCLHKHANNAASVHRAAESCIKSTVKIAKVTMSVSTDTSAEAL

Row | Structure (SMILES) | Ki (human CB1 receptor; [1]) [nM] | Ki (human CB1 receptor; [2]) [nM] | Ki (human CB1 receptor; [3]) [nM] | Max. Disp. %, 3H-CP55940 (human CB1 receptor; [4]) [%] | Max. Disp. %, 3H-SR141716A (human CB1 receptor; [5]) [%] | Max. Disp. %, 3H-WIN55212-2 (human CB1 receptor; [6]) [%] | Ki (CB1 receptor; [7]) [nM] | Ki (CB1 receptor; [8]) [nM] | Ki (CB1 receptor; [9]) [nM] | Max. Disp. %, 3H-CP55940 (CB1 receptor; whole rat brain, 3H-CP55940) [%] | Max. Disp. %, 3H-SR141716A (CB1 receptor; whole rat brain, 3H-SR141716A) [%] | Max. Disp. %, 3H-WIN55212-2 (CB1 receptor; whole rat brain, 3H-WIN55212-2) [%] | Max. Disp. %, 3H-CP55940 (human CB1 receptor) [%] | Max. Disp. %, 3H-SR141716A (human CB1 receptor) [%] | Max. Disp. %, 3H-WIN55212-2 (human CB1 receptor) [%] | Ki (human CB1 receptor; displacement of 3H-CP55940) [nM] | Ki (human CB1 receptor; displacement of 3H-SR141716A) [nM] | Ki (human CB1 receptor; displacement of 3H-WIN55212-2) [nM]
1 | COCC(C)NC(=O)c1nn(-c2ccc(Cl)cc2Cl)c(-c2ccc(Cl)cc2)c1C (centres unmarked) [AM-17] | 39.8 | 17.6 | 30.9 | 86.3 | 98.7 | 96.8 | 64.4 | 22.8 | 22.6 | 96.2 | 94.1 | 84.8 |  |  |  |  |  | 
2 | Cc1c(C(=O)NC(C)CCCC(C)C)nn(-c2ccc(Cl)cc2Cl)c1-c1ccc(Cl)cc1 (centres unmarked) [AKS-10262-7] |  |  |  |  |  |  | 8.97 | 3.57 | 5.76 | 89.6 | 95.1 | 87.7 | 82.5 | 93.7 | 67.9 | 7.39 | 2.1 | 64.2
3 | Cc1c(C(=O)NCCC(c2ccccc2)c2ccccc2)nn(-c2ccc(Cl)cc2Cl)c1-c1ccc(Cl)cc1 [AKS-10262-9] | 25.2 | 3.28 | 16.9 | 88.1 | 96.7 | 77.3 | 19.9 | 5.52 | 10.3 | 90.1 | 96.0 | 81.1 |  |  |  |  |  | 
4 | CCCCCCCCCCCCNC(=O)c1nn(-c2ccc(Cl)cc2Cl)c(-c2ccc(Cl)cc2)c1C [BT-2] | 176 | 43.5 | 13.8 | 79.5 | 89.8 | 31.4 | 109 | 53.7 | 238 | 82.6 | 95.6 | 56.5 |  |  |  |  |  | 
5 | CCCCCCC(C)NC(=O)c1nn(-c2ccc(Cl)cc2Cl)c(-c2ccc(Cl)cc2)c1C (centres unmarked) [AKS-10262-4] |  |  |  |  |  |  | 26.2 | 10.8 | 5.8 | 83.9 | 91.3 | 53.7 | 79.5 | 91.5 | 0.0 | 26.3 | 2.8 | 
6 | CCCCCC(C)NC(=O)c1nn(-c2ccc(Cl)cc2Cl)c(-c2ccc(Cl)cc2)c1C (centres unmarked) [AKS-10262-1] |  |  |  |  |  |  | 10.7 | 2.6 | 1.84 | 98.2 | 96.5 | 89.0 | 80.7 | 95.6 | 100 | 11.9 | 2.02 | 54.6
7 | CC(C)=CCC/C(C)=C/CNC(=O)c1nn(-c2ccc(Cl)cc2Cl)c(-c2ccc(Cl)cc2)c1C [AKS-10262-2] | 26.8 | 6.8 | 211 | 84.2 | 95.7 | 78.3 | 48.1 | 20.1 | 40.5 | 84.2 | 95.7 | 89.0 |  |  |  |  |  | 

Second part, led by results:

Row | Ki (human CB1 receptor; [1]) [nM] | Ki (human CB1 receptor; [2]) [nM] | Ki (human CB1 receptor; [3]) [nM] | Max. Disp. %, 3H-CP55940 (human CB1 receptor; [4]) [%] | Max. Disp. %, 3H-SR141716A (human CB1 receptor; [5]) [%] | Max. Disp. %, 3H-WIN55212-2 (human CB1 receptor; [6]) [%] | Ki (CB1 receptor; [7]) [nM] | Ki (CB1 receptor; [8]) [nM] | Ki (CB1 receptor; [9]) [nM] | Max. Disp. %, 3H-CP55940 (CB1 receptor; whole rat brain, 3H-CP55940) [%] | Max. Disp. %, 3H-SR141716A (CB1 receptor; whole rat brain, 3H-SR141716A) [%] | Max. Disp. %, 3H-WIN55212-2 (CB1 receptor; whole rat brain, 3H-WIN55212-2) [%] | Structure (SMILES) | Max. Disp. %, 3H-CP55940 (human CB1 receptor) [%] | Max. Disp. %, 3H-SR141716A (human CB1 receptor) [%] | Max. Disp. %, 3H-WIN55212-2 (human CB1 receptor) [%] | Ki (human CB1 receptor; displacement of 3H-CP55940) [nM] | Ki (human CB1 receptor; displacement of 3H-SR141716A) [nM] | Ki (human CB1 receptor; displacement of 3H-WIN55212-2) [nM]
8 | 9.4 | 2.2 | 23.9 | 86.5 | 100 | 78.7 | 9.6 | 2.3 | 13.7 | 91.4 | 96.3 | 89.9 | CCC(C)CC(C)NC(=O)c1nn(-c2ccc(Cl)cc2Cl)c(-c2ccc(Cl)cc2)c1C (centres unmarked) [AKS-10262-6] |  |  |  |  |  | 
9 | 13.2 | 5.48 | 33.2 | 76.8 | 93.6 | 91.5 | 3.37 | 2.81 | 28.6 | 76.6 | 96.2 | 94.1 | Cc1c(C(=O)NC(C)CCC(C)C)nn(-c2ccc(Cl)cc2Cl)c1-c1ccc(Cl)cc1 (centres unmarked) [AKS-10262-8] |  |  |  |  |  | 
10 | 106 | 13.6 | 162 | 96.1 | 99.5 | 100 | 71.4 | 29.8 | 326 | 84.7 | 100 | 94.9 | Cc1c(C(=O)NCCc2ccc(O)cc2)nn(-c2ccc(Cl)cc2Cl)c1-c1ccc(Cl)cc1 [AM-52] |  |  |  |  |  | 
11 | 45.6 | 5.2 | 11.7 | 82.4 | 96.9 | 54.9 | 168 | 25.5 | 278 | 86.4 | 83.8 | 90.3 | CCCCCCCCCCCNC(=O)c1nn(-c2ccc(Cl)cc2Cl)c(-c2ccc(Cl)cc2)c1C [BT-7] |  |  |  |  |  | 
12 | 201 | 4.2 | 173 | 75.9 | 91.3 | 94.9 | 492 | 172 | 495 | 79.3 | 97.6 | 80.5 | CCCCCCCCCCCCCNC(=O)c1nn(-c2ccc(Cl)cc2Cl)c(-c2ccc(Cl)cc2)c1C [BT-6] |  |  |  |  |  | 
13 | 220 | 101 | 128 | 62.6 | 87.3 | 68.1 | 91 | 11.8 | 30.4 | 96.4 | 95.4 | 85.8 | COc1ccc(NC(=O)c2nn(-c3ccc(Cl)cc3Cl)c(-c3ccc(Cl)cc3)c2C)cc1 [AN-2] |  |  |  |  |  | 
